From ChEMBL document CHEMBL1201862, “PubChem BioAssay data set” (2004)
Activity calls are given as the source filed them.

Legend:
Cytochrome P450 3A4 = Cytochrome P450 3A4 (Homo sapiens, UniProt P08684); details: Potency;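 further: confirmatory qHTS run detecting inhibitors and substrates of CYP3A4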
[1] = Luminescence Cell-Based Dose Confirmation HTS to Identify Activators of 5'UTR Stem-Loop Driven Alpha-Synuclein mRNA Translation in H4 Neuroglioblastoma Cells. [Related pubchem assays: 1829 (Project Summary), 1814 (Primary HTS)]; type: functional
[2] = Luminescence Cell-Based Dose Response HTS to Identify Activators of Luciferase Translation or Activity in H4 […] Cells. [Related pubchem assays: 1829 (Project Summary), 1814 (Primary HTS)]; type: functional
cells [3] = type: functional, cell-based
H4 = test: Luminescence Cell-Based Dose Response HTS to Identify Activators of 5'UTR Stem-Loop Driven Prion Protein mRNA Translation in H4 Neuroglioblastoma Cells. [Related pubchem assays: 1829 (Project Summary), 1814 (Primary HTS)]; type: functional; details: Homo sapiens
cells [4] = type: functional, cell-based; remark: listed apart in the source
[5] = molecular target: Luciferin 4-monooxygenase (Photinus pyralis, UniProt P08659); test: firefly luciferase enzyme inhibitors, dose response, biochemical, luminescence (AID 1891)
Sequence of Luciferin 4-monooxygenase (P08659 whole entry): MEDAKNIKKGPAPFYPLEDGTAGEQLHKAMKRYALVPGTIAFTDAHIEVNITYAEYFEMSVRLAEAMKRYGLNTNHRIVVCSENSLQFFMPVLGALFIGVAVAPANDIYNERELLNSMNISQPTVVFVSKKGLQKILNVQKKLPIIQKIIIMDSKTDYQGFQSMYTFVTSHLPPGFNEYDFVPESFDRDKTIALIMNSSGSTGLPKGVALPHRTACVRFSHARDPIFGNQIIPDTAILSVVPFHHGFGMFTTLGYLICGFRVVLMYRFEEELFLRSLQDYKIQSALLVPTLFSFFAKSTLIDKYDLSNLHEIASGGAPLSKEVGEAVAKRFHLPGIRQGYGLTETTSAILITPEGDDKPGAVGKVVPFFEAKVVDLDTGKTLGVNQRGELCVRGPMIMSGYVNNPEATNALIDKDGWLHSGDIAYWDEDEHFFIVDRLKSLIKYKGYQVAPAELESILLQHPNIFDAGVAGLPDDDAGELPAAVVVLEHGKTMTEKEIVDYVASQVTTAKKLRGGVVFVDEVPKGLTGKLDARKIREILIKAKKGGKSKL

[6] = Luminescence Cell-Based Dose Confirmation HTS to Identify Inhibitors of Platelet Dense Granule Release. [Related pubchem assays: 1663 (Primary HTS), 1678 (Summary of Project)]; type: functional
Genome polyprotein = Genome polyprotein (dengue virus type 2, UniProt P29990); test: Dengue-2 NS5 methyltransferase inhibitors, primary screen, biochemical, confirmation dose response (AID 588689); type: functional
Sequence of Genome polyprotein (P29990 2492-3391 limits assumed): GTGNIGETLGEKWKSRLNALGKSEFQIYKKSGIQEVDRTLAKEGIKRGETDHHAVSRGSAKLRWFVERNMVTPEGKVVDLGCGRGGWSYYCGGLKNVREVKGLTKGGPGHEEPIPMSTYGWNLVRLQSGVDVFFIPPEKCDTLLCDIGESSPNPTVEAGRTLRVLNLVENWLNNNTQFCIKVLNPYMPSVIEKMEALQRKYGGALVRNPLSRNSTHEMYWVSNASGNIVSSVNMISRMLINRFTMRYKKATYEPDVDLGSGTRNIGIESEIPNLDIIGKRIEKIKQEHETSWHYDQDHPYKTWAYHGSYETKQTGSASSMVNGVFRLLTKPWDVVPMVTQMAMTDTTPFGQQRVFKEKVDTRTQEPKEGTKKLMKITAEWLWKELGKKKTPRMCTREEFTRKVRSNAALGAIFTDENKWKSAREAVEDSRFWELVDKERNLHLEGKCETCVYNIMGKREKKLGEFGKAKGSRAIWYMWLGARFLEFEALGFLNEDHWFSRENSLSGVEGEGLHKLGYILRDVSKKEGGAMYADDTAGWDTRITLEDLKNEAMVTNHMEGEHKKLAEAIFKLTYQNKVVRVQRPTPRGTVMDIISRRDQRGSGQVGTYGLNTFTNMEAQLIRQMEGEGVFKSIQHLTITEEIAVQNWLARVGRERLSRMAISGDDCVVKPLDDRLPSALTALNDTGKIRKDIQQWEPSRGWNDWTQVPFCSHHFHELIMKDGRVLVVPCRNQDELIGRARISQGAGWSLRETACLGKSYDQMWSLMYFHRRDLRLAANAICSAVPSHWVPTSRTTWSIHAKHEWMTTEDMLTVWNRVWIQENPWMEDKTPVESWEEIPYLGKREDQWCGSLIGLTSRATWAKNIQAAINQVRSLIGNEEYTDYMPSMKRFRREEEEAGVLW

Fatty acid synthase [7] = molecular target: T1, Fatty acid synthase (Homo sapiens, UniProt P49327); test: FAS thioesterase domain inhibitors, dose response, biochemical, endpoint fluorescence intensity, uHTS hits (AID 624327); type: functional;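 further: fluorescence from hydrolysis of an O-methyl fluorescein acyl ester substrate by the enzyme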
T1 sequence (P49327 whole entry, the tested form may be a part): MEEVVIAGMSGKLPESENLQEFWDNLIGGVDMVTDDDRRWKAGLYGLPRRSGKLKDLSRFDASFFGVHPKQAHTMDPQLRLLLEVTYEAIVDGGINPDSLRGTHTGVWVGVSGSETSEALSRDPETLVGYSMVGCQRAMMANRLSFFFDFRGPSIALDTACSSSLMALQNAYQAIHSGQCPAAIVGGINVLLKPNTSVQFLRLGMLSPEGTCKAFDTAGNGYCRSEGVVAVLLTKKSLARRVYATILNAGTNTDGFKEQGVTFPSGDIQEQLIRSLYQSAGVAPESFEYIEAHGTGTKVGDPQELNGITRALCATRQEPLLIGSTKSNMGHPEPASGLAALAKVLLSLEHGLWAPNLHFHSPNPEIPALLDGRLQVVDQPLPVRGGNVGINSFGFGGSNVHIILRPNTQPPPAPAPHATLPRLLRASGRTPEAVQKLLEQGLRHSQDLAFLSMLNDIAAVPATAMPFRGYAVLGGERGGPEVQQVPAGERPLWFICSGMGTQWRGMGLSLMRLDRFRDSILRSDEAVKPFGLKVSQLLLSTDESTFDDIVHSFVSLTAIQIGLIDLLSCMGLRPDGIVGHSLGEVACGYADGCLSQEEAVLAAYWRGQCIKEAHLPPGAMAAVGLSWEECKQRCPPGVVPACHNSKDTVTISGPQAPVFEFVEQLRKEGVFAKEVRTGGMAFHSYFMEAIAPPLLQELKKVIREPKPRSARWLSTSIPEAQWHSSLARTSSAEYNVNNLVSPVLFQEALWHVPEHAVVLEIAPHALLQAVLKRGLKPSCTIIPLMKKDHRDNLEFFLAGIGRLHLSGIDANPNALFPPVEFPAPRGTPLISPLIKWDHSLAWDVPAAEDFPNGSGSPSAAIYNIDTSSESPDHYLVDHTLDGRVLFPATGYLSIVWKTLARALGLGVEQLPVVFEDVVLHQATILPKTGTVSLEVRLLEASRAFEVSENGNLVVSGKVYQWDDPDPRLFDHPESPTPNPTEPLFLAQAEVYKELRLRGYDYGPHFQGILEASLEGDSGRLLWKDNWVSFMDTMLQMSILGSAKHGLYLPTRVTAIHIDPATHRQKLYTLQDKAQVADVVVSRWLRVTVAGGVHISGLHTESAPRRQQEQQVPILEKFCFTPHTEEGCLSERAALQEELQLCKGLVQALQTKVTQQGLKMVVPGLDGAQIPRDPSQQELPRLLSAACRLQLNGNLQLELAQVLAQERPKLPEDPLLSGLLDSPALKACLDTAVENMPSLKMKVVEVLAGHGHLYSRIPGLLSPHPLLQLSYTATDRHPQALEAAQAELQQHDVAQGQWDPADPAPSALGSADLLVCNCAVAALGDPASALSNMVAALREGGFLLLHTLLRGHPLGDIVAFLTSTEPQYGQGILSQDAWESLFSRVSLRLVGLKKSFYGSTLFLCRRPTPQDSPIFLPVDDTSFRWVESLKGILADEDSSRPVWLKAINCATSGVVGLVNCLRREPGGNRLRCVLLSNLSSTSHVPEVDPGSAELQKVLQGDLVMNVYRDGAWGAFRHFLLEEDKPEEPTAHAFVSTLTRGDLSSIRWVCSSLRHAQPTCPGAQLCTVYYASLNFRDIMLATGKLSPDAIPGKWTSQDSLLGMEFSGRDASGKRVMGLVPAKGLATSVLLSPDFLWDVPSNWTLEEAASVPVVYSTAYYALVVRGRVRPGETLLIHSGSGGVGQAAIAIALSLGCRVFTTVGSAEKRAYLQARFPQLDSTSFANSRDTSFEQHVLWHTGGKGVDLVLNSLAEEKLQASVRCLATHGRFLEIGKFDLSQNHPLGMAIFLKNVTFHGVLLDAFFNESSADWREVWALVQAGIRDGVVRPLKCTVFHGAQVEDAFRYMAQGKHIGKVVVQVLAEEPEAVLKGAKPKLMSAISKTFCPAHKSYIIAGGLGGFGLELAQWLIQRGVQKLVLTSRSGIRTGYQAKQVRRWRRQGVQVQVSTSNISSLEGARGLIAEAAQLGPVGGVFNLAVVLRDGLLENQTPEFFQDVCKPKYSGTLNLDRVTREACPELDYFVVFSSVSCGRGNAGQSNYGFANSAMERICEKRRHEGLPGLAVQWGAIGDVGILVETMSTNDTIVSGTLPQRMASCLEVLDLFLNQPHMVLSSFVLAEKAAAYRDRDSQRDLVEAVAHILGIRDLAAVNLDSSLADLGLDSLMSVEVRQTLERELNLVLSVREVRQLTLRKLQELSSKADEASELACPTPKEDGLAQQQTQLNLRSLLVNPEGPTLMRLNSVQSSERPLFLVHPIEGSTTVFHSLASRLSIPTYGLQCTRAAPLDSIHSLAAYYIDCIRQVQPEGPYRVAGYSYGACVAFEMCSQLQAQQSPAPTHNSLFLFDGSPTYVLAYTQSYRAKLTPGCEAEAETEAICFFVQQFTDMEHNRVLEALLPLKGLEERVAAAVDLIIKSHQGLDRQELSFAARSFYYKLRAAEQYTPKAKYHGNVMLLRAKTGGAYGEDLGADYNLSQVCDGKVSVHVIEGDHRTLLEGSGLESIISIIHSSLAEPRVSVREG

Fatty acid synthase [8] = molecular target: T1, Fatty acid synthase; test: FAS thioesterase domain inhibitors, dose response, biochemical, kinetic fluorescence intensity (AID 624326); type: functional;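 further: rate of fluorescence rise from hydrolysis of a fluorogenic O-methyl fluorescein ester substrate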
[9] = molecular target: G-protein coupled receptor 55 (Homo sapiens, UniProt Q9Y2T6); test: GPR55 antagonists blocking LPI-driven arrestin recruitment, primary screen, imaging, U2OS, beta-arrestin-GFP, LPI agonist (AID 2013); type: functional;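 further: antagonist potency measured as reduced agonist-driven arrestin aggregation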
Sequence of G-protein coupled receptor 55 (Q9Y2T6 whole entry): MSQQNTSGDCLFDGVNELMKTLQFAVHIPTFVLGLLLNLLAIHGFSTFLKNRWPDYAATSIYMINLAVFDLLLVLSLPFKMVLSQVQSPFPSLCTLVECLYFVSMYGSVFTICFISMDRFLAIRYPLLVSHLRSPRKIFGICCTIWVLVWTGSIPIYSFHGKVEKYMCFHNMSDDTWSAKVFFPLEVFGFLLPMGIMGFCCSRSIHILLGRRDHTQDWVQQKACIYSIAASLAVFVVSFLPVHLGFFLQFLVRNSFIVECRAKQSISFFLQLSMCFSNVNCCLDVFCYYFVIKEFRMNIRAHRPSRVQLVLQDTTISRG

[10] = growth suppression of PTEN-null colon cells, dose response, cell-based, HCT116 PTEN knockout (AID 1047); type: functional;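 further: HCT116 colon tumor cells with PTEN knocked out; cells exposed to compound for 60 hours before readout; potency for loss of cell viability measured by luminescence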
[11] = growth suppression of beta-catenin-knockout colon cells, dose response, cell-based, HCT116, human colon tumor (AID 1045); type: functional;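 further: HCT116 colon tumor cells with beta catenin knocked out; cells exposed to compound for 60 hours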
[12] = molecular target: T2, Heat shock factor protein 1 (Mus musculus, UniProt P38532); test: HSF1 potentiators in luciferase reporter cells, confirmation, cell-based, NIH3T3, luminescence, dose retest (AID 435004); type: functional;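 further: stress induced by proteasome inhibitor MG132 added 30 min after compound; luciferase reporter driven by HSF1 response element in NIH3T3 cells; actives raise luminescence as potentiators of the MG132 stress response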
T2 sequence (P38532 whole entry): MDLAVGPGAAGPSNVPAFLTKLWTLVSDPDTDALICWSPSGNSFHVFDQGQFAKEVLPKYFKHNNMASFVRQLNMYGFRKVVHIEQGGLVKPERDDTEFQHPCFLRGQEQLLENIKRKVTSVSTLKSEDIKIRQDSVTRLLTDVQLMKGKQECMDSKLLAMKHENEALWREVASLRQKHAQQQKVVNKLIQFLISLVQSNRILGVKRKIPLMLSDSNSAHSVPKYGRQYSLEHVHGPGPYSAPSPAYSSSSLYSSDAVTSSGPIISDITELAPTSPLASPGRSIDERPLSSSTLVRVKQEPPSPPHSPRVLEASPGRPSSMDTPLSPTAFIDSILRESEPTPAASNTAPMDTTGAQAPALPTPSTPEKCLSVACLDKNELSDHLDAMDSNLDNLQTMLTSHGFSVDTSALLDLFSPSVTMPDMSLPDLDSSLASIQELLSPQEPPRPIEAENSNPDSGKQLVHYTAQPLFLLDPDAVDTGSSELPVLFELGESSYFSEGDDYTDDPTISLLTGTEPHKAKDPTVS

[13] = molecular target: T3, Corticotropin-releasing factor receptor 2/Corticotropin-releasing factor-binding protein (Homo sapiens, UniProt P24387+Q13324); test: Dose Response confirmation of uHTS hits for small molecule antagonists of the CRF-binding protein and CRF-R2 receptor complex.; type: functional; details: read-out: IC50_Mean
T3 sequence (Q13324 whole entry): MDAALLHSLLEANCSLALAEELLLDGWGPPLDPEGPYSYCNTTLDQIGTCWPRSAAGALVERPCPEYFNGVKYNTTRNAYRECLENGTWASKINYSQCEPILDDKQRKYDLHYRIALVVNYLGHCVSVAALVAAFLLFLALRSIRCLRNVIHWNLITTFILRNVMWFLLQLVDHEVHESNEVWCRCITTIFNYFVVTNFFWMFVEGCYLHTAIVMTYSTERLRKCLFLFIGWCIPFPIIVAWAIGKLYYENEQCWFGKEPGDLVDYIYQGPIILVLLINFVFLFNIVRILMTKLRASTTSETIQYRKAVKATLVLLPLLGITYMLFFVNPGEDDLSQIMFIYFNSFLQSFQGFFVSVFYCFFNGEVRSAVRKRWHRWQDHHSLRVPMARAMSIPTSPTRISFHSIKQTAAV
T3 sequence (P24387 whole entry): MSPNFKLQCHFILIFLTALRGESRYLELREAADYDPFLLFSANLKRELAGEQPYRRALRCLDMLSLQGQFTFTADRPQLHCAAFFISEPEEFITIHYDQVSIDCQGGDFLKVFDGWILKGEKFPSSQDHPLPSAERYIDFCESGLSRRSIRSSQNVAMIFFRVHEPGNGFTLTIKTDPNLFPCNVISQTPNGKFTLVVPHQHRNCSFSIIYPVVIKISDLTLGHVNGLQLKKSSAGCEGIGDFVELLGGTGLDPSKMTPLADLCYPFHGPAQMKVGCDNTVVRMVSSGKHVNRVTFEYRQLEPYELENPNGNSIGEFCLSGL

[14] = molecular target: T3, Corticotropin-releasing factor receptor 2/Corticotropin-releasing factor-binding protein; test: activators of CRF receptor 2 with binding protein – uHTS hits, confirmation (AID 602473); type: functional; details: read-out: EC50_Mean
Streptokinase A = molecular target: T4, Streptokinase A (Streptococcus pyogenes serotype M1, UniProt P10520); test: S. pyogenes streptokinase expression inhibitors, potency, dose response, plasminogen activation absorbance, OD405 (AID 1914); type: functional, Streptococcus pyogenes M1 GAS;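 further: secreted streptokinase activity via plasminogen activation per viability signal from cell pellet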
T4 sequence (P10520 whole entry): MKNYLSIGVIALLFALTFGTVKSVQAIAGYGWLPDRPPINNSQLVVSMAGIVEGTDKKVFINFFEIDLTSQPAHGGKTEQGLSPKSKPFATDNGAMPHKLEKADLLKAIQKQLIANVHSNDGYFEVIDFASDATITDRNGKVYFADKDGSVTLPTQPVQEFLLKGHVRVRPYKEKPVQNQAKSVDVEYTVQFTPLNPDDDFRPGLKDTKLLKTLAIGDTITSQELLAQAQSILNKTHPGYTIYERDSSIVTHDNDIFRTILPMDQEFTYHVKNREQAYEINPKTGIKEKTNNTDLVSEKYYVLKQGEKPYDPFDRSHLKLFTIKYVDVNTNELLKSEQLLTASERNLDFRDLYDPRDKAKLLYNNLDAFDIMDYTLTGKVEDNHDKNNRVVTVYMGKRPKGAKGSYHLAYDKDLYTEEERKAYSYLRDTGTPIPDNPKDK

Streptococcus = test: Group A Streptococcus viability loss, dose response, counter-screen for streptokinase expression inhibitor project, luminescence, BacTiterGlo (AID 1915); type: functional, organism-based;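 further: potency for reduction of bacterial viability or growth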
[15] = THP-1 cell cytotoxicity, dose response, cytotoxicity control for non-replicating M. tuberculosis project (AID 489025); type: functional
[16] = molecular target: T5, Replicative DNA helicase DnaB (Mycobacterium tuberculosis, UniProt P9WMR3); test: DnaB intein splicing inhibitors, dose response, biochemical, cell-free fluorescence (AID 449749); type: functional
T5 sequence (P9WMR3 whole entry): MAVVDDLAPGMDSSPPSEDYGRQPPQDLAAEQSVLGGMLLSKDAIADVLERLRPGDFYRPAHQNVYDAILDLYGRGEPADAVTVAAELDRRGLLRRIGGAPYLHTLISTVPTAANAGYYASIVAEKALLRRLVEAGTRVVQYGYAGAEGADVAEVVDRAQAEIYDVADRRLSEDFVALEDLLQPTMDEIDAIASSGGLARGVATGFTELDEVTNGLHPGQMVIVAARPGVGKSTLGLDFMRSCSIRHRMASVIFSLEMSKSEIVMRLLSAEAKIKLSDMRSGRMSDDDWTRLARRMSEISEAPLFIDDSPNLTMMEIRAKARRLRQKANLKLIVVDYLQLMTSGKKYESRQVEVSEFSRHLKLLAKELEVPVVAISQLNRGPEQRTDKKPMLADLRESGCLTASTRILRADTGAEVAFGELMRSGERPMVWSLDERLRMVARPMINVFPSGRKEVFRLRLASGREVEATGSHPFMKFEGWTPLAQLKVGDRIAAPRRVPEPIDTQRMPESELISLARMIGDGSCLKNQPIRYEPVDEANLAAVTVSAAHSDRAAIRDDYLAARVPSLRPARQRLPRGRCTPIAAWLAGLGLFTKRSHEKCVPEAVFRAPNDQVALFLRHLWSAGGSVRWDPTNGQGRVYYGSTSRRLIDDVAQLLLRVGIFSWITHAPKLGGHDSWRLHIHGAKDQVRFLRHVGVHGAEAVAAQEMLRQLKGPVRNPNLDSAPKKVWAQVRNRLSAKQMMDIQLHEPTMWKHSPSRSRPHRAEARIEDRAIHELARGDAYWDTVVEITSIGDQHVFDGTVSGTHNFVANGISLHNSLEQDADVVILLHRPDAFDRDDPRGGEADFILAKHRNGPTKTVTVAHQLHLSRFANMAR

Protein RecA = molecular target: T6, Protein RecA (Mycobacterium tuberculosis, UniProt P9WHJ3); test: Fluorescence Cell-Free Homogeneous Dose Retest to Identify Inhibitors of RecA-Intein Splicing Activity. [Related pubchem assays (depositor defined):AID2097, AID2223, AID489010, AID492950]; type: functional
T6 sequence (P9WHJ3 whole entry): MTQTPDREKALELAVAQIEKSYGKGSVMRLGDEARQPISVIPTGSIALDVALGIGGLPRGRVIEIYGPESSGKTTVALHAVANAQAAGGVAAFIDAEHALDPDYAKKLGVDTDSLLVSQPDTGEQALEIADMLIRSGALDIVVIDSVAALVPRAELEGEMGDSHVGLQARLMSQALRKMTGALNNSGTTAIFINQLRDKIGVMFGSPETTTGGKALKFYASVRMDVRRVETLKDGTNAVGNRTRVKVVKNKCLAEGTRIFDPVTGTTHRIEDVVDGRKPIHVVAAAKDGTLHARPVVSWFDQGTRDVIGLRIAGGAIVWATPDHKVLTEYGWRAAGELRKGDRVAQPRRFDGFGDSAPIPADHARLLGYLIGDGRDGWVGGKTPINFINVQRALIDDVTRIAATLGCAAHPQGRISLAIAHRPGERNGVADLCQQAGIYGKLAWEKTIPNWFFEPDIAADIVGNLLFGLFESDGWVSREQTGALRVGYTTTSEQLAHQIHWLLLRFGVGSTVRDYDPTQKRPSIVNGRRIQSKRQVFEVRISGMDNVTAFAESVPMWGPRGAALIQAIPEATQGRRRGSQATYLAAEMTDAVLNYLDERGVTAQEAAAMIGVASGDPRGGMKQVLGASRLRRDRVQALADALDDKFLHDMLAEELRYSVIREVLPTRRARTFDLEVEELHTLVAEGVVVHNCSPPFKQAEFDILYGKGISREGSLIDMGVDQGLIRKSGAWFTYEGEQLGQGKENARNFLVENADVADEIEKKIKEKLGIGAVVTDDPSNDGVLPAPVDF

Sequence of Cytochrome P450 3A4 (P08684 whole entry): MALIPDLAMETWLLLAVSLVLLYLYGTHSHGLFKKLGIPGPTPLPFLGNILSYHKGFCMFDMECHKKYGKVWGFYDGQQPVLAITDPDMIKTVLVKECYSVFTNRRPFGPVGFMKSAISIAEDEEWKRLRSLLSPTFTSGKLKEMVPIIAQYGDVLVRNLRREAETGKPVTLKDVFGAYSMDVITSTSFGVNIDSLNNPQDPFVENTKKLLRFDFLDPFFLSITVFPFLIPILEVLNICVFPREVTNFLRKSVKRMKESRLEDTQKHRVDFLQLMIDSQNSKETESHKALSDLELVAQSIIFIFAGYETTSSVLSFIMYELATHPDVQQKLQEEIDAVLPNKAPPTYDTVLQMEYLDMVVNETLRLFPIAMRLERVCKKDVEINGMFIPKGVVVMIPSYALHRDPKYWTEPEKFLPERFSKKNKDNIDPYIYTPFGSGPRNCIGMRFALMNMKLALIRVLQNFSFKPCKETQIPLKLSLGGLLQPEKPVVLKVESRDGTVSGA

Structure (SMILES): CC1(C)C2(Cl)C(Cl)C(Cl)C(Cl)(C(Cl)Cl)C1(Cl)C2Cl (stereo unspecified) [STROBANE]
- AC50 (Cytochrome P450 3A4): 15.8 µM (inconclusive)

Structure (SMILES): N=C(NOC(=O)Cc1cccs1)c1ccccc1
- EC50 [1]: 3.81 µM (active)
- EC50 [2]: 11.1 µM (active)
- EC50 (cells [3]): > 350 µM (not active)
- EC50 (H4): 9.96 µM (active)
- EC50 (cells [4]): 20.7 µM (active)

Structure (SMILES): Cc1cc(S(=O)(=O)ON2C(=O)c3ccccc3C2=O)ccc1F
- EC50 (cells [3]): > 350 µM (not active)
- EC50 [5]: > 112 µM (not active)
- EC50 [6]: > 112 µM (not active)
- EC50 (cells [4]): > 350 µM (not active)
- IC50 (Genome polyprotein): > 100 µM (active)
- IC50 (Fatty acid synthase [7]): 2.43 µM (active)
- IC50 (Fatty acid synthase [8]): 2.07 µM (active)

Structure (SMILES): CCCn1c(-c2ccc(F)cc2)nc2c(N(C)CCN(C)C)nc(C)nc21
- AC50 (Cytochrome P450 3A4): 25.1 µM (inconclusive)

Structure (SMILES): COc1c(O)cc2c(-c3ccccc3)cc(=O)oc2c1OC [KUHLMANNIN]
- AC50 (Cytochrome P450 3A4): 31.6 µM (inconclusive)

Structure (SMILES): CCOC(=O)C(C)(C)N(Cc1ccc(C)cc1)S(=O)(=O)c1ccc(Cl)c([N+](=O)[O-])c1
- IC50 [9]: 3.61 µM (active)
- EC50 [10]: 17.7 µM (active)
- EC50 [11]: 15.3 µM (active)
- EC50 [12]: 20.1 µM (active)
- IC50 [13]: > 47.1 µM (inactive)
- EC50 [14]: > 53 µM (inactive)

Structure (SMILES): COc1ccc(CNCc2cc3c(C(C)(C)C)nn(-c4ccccc4)c3[nH]c2=O)cc1
- IC50 [9]: 2.18 µM (active)

Structure (SMILES): COC(=O)c1c(NC(NC(=O)C(C)(C)C)C(Cl)(Cl)Cl)sc2c1CCC2 (stereo unspecified)
- EC50 (Streptokinase A): 2.8 µM (active)
- IC50 [9]: 2.01 µM (active)
- EC50 (Streptococcus): 20.3 µM (active)

Structure (SMILES): O=S(=O)(Nc1ccc(O)c2ccccc12)c1ccc(F)cc1
- CC50 [15]: > 40 µM (active)
- AC50 [16]: 0.214 µM (active)
- EC50 (Protein RecA): 0.0466 µM (active)

Structure (SMILES): COC(=O)c1ccc(CN2[C@H](C(=O)OC)C[C@@]3(O)[C@H](O)[C@H](O)[C@H](O)C[C@@H]23)cc1
- AC50 (Cytochrome P450 3A4): 12.6 µM (inconclusive)

Structure (SMILES): CCCCC(CC)COCCCN (stereo unspecified)
- AC50 (Cytochrome P450 3A4): 31.6 µM (inconclusive)

Structure (SMILES): COC(=O)[C@@]1(C)C[C@@H]1[C@@H](NC(=O)[C@@]1(C)C[C@@H]1[C@@H](NC(=O)[C@@]1(C)C[C@@H]1[C@@H](NC(=O)[C@@]1(C)C[C@@H]1[C@@H](NC(=O)OCc1ccccc1)c1ccccc1)c1ccccc1)c1ccccc1)c1ccccc1
- AC50 (Cytochrome P450 3A4): 0.2 µM (inconclusive)
